Like-named read-outs stand apart in the source and are kept apart here.
Molecular target: b-Raf (V600E) (Homo sapiens (Human), UniProt P15056, V600E)
Conditions: read-out: b-Raf IC-50, AlphaScreen
[1] = 60 min pre-incubation, reaction 3 hours at room temperature
[2] = 60 min pre-incubation, 3 hours reaction

b-Raf (V600E), sequence (P15056 whole entry V600E): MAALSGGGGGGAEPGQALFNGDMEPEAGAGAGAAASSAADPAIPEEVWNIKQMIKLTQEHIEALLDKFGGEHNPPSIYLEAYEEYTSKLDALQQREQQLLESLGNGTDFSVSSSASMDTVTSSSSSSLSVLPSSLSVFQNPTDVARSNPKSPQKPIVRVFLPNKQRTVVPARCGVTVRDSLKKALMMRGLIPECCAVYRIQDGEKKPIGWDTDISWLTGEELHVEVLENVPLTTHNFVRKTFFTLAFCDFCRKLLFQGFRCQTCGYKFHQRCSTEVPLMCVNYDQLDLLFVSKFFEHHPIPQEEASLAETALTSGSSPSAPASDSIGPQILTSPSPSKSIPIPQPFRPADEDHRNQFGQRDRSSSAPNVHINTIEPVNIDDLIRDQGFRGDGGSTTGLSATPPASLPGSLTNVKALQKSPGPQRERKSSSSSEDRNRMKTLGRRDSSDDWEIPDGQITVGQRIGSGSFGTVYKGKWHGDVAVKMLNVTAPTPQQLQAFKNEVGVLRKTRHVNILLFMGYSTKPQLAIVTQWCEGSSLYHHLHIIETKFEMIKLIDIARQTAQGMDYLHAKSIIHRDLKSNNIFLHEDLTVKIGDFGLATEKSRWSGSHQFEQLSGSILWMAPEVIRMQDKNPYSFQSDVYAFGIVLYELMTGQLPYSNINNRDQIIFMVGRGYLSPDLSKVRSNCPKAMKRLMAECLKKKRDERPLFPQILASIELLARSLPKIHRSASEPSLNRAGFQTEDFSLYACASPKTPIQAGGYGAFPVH

Row | IC50 [1] | IC50 [2] | Compound | also measured
1 | 0.83 nM |  | Cc1ncc(NC(=O)c2cccc(C(F)(F)F)c2)cc1-c1cnc(N(C)CCO)c(N2CCOCC2)c1 [Example 986, N-(6′-((2-hydroxyethyl)(methyl)amino)-2-methyl-5′-morpholino-[3,3′-bipyridin]-5-yl)-3-(trifluoromethyl)benzamide] | 
2 | 0.98 nM |  | COc1nnc(-c2cc(C(=O)Nc3ccnc(C(F)(F)F)c3)ccc2C)cc1N1CCOCC1 [Example 1017, 3-(6-methoxy-5-morpholinopyridazin-3-yl)-4-methyl-N-(2-(trifluoromethyl)pyridin-4-yl)benzamide] | 
3 | 1.11 nM |  | COc1nnc(-c2cc(C(=O)Nc3ccnc(C(C)(F)F)c3)ccc2C)cc1N1CCOCC1 [Example 1019, N-(2-(1,1-difluoroethyl)pyridin-4-yl)-3-(6-methoxy-5-morpholinopyridazin-3-yl)-4-methylbenzamide] | 
4 | 0.31 nM |  | Cc1ccc(NC(=O)c2cncc(C(F)(F)F)c2)cc1-c1cnc(OC(C)C)c(N2CCOCC2)c1 [Example 951, N-(3-(6-isopropoxy-5-morpholinopyridin-3-yl)-4-methylphenyl)-5-(trifluoromethyl)nicotinamide] | 
5 | 32.9 nM |  | CCN1CCN(c2cc(C(=O)Nc3cnc(C)c(-c4cc(NCCO)nc(N5CCOCC5)c4)c3)cc(C(F)(F)F)c2)CC1 [Example 1045, 3-(4-ethylpiperazin-1-yl)-N-(2′-((2-hydroxyethyl)amino)-2-methyl-6′-morpholino-[3,4′-bipyridin]-5-yl)-5-(trifluoromethyl)benzamide] | 
6 |  | 9.2 nM | Cc1ccc(NC(=O)c2ccnc(C(C)(C)C#N)c2)cc1-c1cc(N2CCOC[C@@H]2C)c(=O)n(C)n1 [Example 663, (S)-2-(2-cyanopropan-2-yl)-N-(4-methyl-3-(1-methyl-5-(3-methylmorpholino)-6-oxo-1,6-dihydropyridazin-3-yl)phenyl)isonicotinamide] | 
7 |  | 1 nM | Cc1ccc(NC(=O)c2cccc(C(F)(F)F)c2)cc1-c1cc(N2CCOCC2)nc(N2CC(O)C2)n1 [Example 765, N-(3-(2-(3-hydroxyazetidin-1-yl)-6-morpholinopyrimidin-4-yl)-4-methylphenyl)-3-(trifluoromethyl)benzamide] | 

Further lines, the molecule ahead of its results:

Row | Compound | IC50 [1] | IC50 [2] | also measured
8 | Cc1ccc(NC(=O)c2cc(C(F)(F)F)ccn2)cc1-c1cc(N2CCOCC2)c(OC2CCOCC2)nn1 [Example 580, N-(4-methyl-3-(5-morpholino-6-((tetrahydro-2H-pyran-4-yl)oxy)pyridazin-3-yl)phenyl)-4-(trifluoromethyl)picolinamide] |  | 0.5 nM | 
9 | Cc1ncc(NC(=O)c2cccc(OC(C)C)c2)cc1-c1cc(N2CCOCC2)c(=O)n(C)c1 [Example 398, N-(1′,2-dimethyl-5′-morpholino-6′-oxo-1′,6′-dihydro-[3,3′-bipyridin]-5-yl)-3-isopropoxybenzamide] |  |  | IC50 (Table 2, 3 hours reaction): 8.4 nM
10 | CCOc1nnc(-c2cc(NC(=O)c3ccnc(C4CC4)c3)ccc2C)cc1N1CCOCC1 [Example 563, 2-cyclopropyl-N-(3-(6-ethoxy-5-morpholinopyridazin-3-yl)-4-methylphenyl)isonicotinamide] |  | 0.6 nM | 
11 | Cc1ncc(NC(=O)c2ccccc2)cc1-c1cc(N2CCOCC2)n(C)c(=O)c1 [Example 503, N-(1′,2-dimethyl-6′-morpholino-2′-oxo-1′,2′-dihydro-[3,4′-bipyridin]-5-yl)benzamide] |  | 200 nM | 
12 | Cc1ccc(NC(=O)c2ccnc(C(C)(F)F)c2)cc1-c1cc(N2CCOCC2)c(OC(C)C)nn1 [Example 592, 2-(1,1-difluoroethyl)-N-(3-(6-isopropoxy-5-morpholinopyridazin-3-yl)-4-methylphenyl)isonicotinamide] |  | 0.7 nM | 
13 | CCc1cccc(NC(=O)c2ccc(C)c(-c3cc(N4CCOCC4)c(=O)n(C)c3)c2)c1 [Example 435, N-(3-ethylphenyl)-4-methyl-3-(1-methyl-5-morpholino-6-oxo-1,6-dihydropyridin-3-yl)benzamide] |  |  | IC50 (Table 2, 3 hours reaction): 2.4 nM
14 | C=C(C)c1ccc(F)c(NC(=O)c2ccc(C)c(-c3cnc(OCC)c(N4CCOCC4)c3)c2)c1 [Example 256, 3-(6-ethoxy-5-morpholinopyridin-3-yl)-N-(2-fluoro-5-(prop-1-en-2-yl)phenyl)-4-methylbenzamide] |  |  | IC50 (Table 2, 3 hours reaction): 1.8 nM
